# Key:
# [1] = system: Lone star tick larvae (Amblyomma americanum); assay: Larval immersion microassay against larval-stage Lone star ticks; conditions: Amblyomma americanum, 24 h, read-out: activity (percent larval mortality)
# Protocol: The larval immersion microassay was conducted as described in detail in White, et al., J. Med. Entomol. 41: 1034-1042 (2004). Compounds of the invention were formulated in dimethylsulfoxide (DMSO) to prepare a stock solution at a concentration of at least 10 mM. Using 96-well microtiter plates, an aliquot of the mM sample was subsequently diluted in a water-based solution containing 1% ethanol and 0.2% Triton X-100, to obtain the desired concentration (typically 0.3 mM or lower) of compound in a volume of 0.1 ml (minimum n=3 replicates per compound or concentration). Approximately 30-50 Lone star tick larvae (Amblyomma americanum) were submerged into each well containing compounds. After a 30 minute immersion period, larvae were removed with a wide-bore pipette tip in 0.05 ml of fluid, dispensed into a commercial paper tissue biopsy bag which was sealed at the top with a plastic dialysis clip, inverted and allowed to air dry for 60 minutes. Bags containing larvae were then incubated at approximately 27 degrees Celsius and >90% relative humidity. After 24 hours, bags were opened, live and dead larvae were counted and percent larval mortality was calculated.
# 7 and 8 contain one chiral center each, and are racemic mixtures comprised of approximately 50% R- and 50% S-enantiomer. In vitro and surrogate animal (rat) studies were conducted to evaluate the biological activity of the R- and S-enantiomers of 7 and 8. For the in vitro study, larvae of the Lone star tick (Amblyomma americanum) were exposed to 9, 10, 11 and 12 using the larval immersion microassay at a concentration of no greater than 0.3 mM. Following exposure, larvae were removed, transferred to a tissue biopsy bag and incubated at approximately 27 degrees Celsius and >90% relative humidity. After 24 hours, biopsy bags were opened and the numbers of live and dead larvae were determined
# [2] = system: adult American dog tick (Dermacentor variabilis); assay: Therapeutic (knockdown) and residual efficacy against adult American dog tick infestations on dogs, oral; format: in vivo; conditions: for Geometric mean group live parasite counts / % efficacy: Table 7, oral capsule 25 mg/kg; for therapeutic efficacy / Residual efficacy: oral gavage 25 mg/kg
# Protocol: (§1) The therapeutic (knockdown) and residual efficacy of 5, administered orally at a point dose of 25 mg/kg bodyweight, was evaluated against adult American dog tick (D. variabilis) infestations on dogs. Six beagle dogs were allocated to one of two treatment groups, an untreated control group (n=4 dogs) or 5 group (n=2 dogs). On Day 0, two dogs were treated with 5 via oral gavage (25 mg/ml 5, dissolved in a solution of 55% polyethylene glycol-300, 35% propylene glycol and 10% water) at a point dose of approximately 25 mg/kg. Twenty-four (24) hours before treatment (Day −1), all dogs were infested with approximately 50 unfed, adult-stage American dog ticks (D. variabilis; approximately 50% male and 50% female). On Day 1, approximately 24 hours after treatment, thumb counts were conducted to determine the number and life-status classification of ticks present on all dogs (normal, moribund or dead; attached or detached). Ticks were not removed during thumb counts. On Day 2, approximately 48 hours after treatment, all ticks were classified and removed from dogs. Dogs were re-infested with approximately 50 unfed, adult D. variabilis ticks on Days 5 and 12, with tick classification, counts and removal on Days 7 and 14 (approximately 48 hours after each infestation).
# (§2) The therapeutic (knockdown) and residual efficacy of 7 and 8, each administered orally at a point dose of 25 mg/kg bodyweight, was evaluated against adult tick (Dermacentor variabilis and Rhipicephalus sanguineus) and adult cat flea (Ctenocephalides felis) infestations on dogs. Twelve (12) male and female beagle dogs were randomly allocated to one of three treatment groups, four (4) dogs per group: Untreated control; 7, 25 mg/kg; and 8, 25 mg/kg. On Day −1, all dogs were infested with approximately 50 unfed, adult D. variabilis ticks. On Day 0, dogs were orally administered gelatin capsules containing either 7 or 8 (50% technical active, 47% microcrystalline cellulose and 3% croscarmellose sodium, w/w). Ticks were counted and classified, but not removed, on all dogs on Day 1, approximately 24 hours after treatment. On Day 2, approximately 48 hours after treatment, ticks were counted, classified and removed. Dogs were re-infested with the same number of D. variabilis ticks on Days 5, 12, 19 and 28 and tick counts were conducted on Days 7, 14, 21 and 30.
# (§3) The therapeutic (knockdown) and residual efficacy of 7, administered orally at a point dose of 35 mg/kg bodyweight, was evaluated against adult tick (Dermacentor variabilis and Rhipicephalus sanguineus) and adult cat flea (Ctenocephalides felis) infestations on dogs. Twelve (12) male and female beagle dogs were allocated to either an untreated, negative control group or 7 group (n=6 dogs per group). Dogs were infested with approximately 50 unfed, adult D. variabilis ticks on Days −1, 5, 12, 19, 28, 35 and 42. On Day 0, dogs were orally administered gelatin capsules containing Compound 8194 (50% technical active, 47% microcrystalline cellulose and 3% croscarmellose sodium, w/w) at a point dose of 35 mg/kg. D. variabilis tick counts and classification were conducted on Day 1 (thumb count, approximately 24 hours after treatment) and Days 2, 7, 14, 21, 30, 37 and 44 (approximately 48 hours after treatment). Following removal of D. variabilis ticks on Day 30, all dogs were co-infested with approximately 50 unfed, adult brown dog ticks (R. sanguineus) and approximately 100 unfed, adult cat fleas (C. felis). Brown dog tick and cat flea counts were conducted on Day 32 (approximately 48 hours after infestation). GM percent efficacy of treatments against both tick species and fleas was calculated using the following formula: […]
# The therapeutic (knockdown) and residual efficacy of S-enantiomer, 9, administered orally at a point dose of 25 mg/kg bodyweight, was evaluated against adult tick (Dermacentor variabilis and Rhipicephalus sanguineus) and adult cat flea (Ctenocephalides felis) infestations on dogs. […]
# [3] = Tolerability of oral treatment in dogs; format: in vivo, dog; conditions: oral gavage 25 mg/kg
# Protocol: as §1, §2
# The therapeutic (knockdown) and residual efficacy of 7, administered orally at a point dose of 35 mg/kg bodyweight, was evaluated against adult tick (Dermacentor variabilis and Rhipicephalus sanguineus) and adult cat flea (Ctenocephalides felis) infestations on dogs. Twelve (12) male and female beagle dogs were allocated to either an untreated, negative control group or 7 group (n=6 dogs per group). Dogs were infested with approximately 50 unfed, adult D. variabilis ticks on Days −1, 5, 12, 19, 28, 35 and 42. On Day 0, dogs were orally administered gelatin capsules containing Compound 8194 (50% technical active, 47% microcrystalline cellulose and 3% croscarmellose sodium, w/w) at a point dose of 35 mg/kg. […] GM percent efficacy of treatments against both tick species and fleas was calculated using the following formula: […]
# The therapeutic efficacy and speed of kill of 7, administered orally at a point dose of 20 mg/kg bodyweight, was evaluated against adult cat flea (Ctenocephalides felis) infestations on dogs. […]
# [4] = system: brown dog tick (Rhipicephalus sanguineus); assay: Residual efficacy against adult brown dog tick infestations on dogs, oral; format: in vivo; conditions: Table 7, oral capsule 25 mg/kg, Day 32
# Protocol: (§4) Immediately following removal of D. variabilis ticks on Day 30, dogs were co-infested with approximately 50 adult, unfed brown dog ticks (R. sanguineus, approximately 50% male and 50% female) and approximately 100 adult, unfed cat fleas (C. felis, approximately 50% male and 50% female). Ticks and fleas were counted and removed on Day 32 (approximately 48 hours after infestation). GM percent efficacy of treatments against both tick species and fleas was calculated using the following formula: […]
# as §3
# (§5) The therapeutic (knockdown) and residual efficacy of S-enantiomer, 9, administered orally at a point dose of 25 mg/kg bodyweight, was evaluated against adult tick (Dermacentor variabilis and Rhipicephalus sanguineus) and adult cat flea (Ctenocephalides felis) infestations on dogs. Twelve (12) male and female beagle dogs were allocated to either an untreated, negative control group or 9 group (n=6 dogs per group). Dogs were infested with approximately 50 unfed, adult D. variabilis ticks on Days −1, 5, 12, 19, and 28. On Day 0, dogs were orally administered gelatin capsules containing 9 (50% technical active, 47% microcrystalline cellulose and 3% croscarmellose sodium, w/w) at a point dose of 25 mg/kg. D. variabilis tick counts and classification were conducted on Day 1 (thumb count, approximately 24 hours after treatment) and Days 2, 7, 14, 21 and 30 (approximately 48 hours after treatment). Following removal of D. variabilis ticks on Day 30, all dogs were co-infested with approximately 50 unfed, adult brown dog ticks (R. sanguineus) and approximately 100 unfed, adult cat fleas (C. felis). Brown dog tick and cat flea counts were conducted on Day 32 (approximately 48 hours after infestation). GM percent efficacy of treatments against both tick species and fleas was calculated using the following formula: […]
# [5] = system: cat flea (Ctenocephalides felis); assay: Residual efficacy against adult cat flea infestations on dogs, oral; format: in vivo; conditions: Table 7, oral capsule 25 mg/kg, Day 32
# Protocol: as §4, §3, §5
smiles,measurement,setting,value
"Cc1cc(C2=NOC(c3cc(Cl)c(F)c(Cl)c3)(C(F)(F)F)C2)ccc1C(=O)NCc1ccc2c(c1)C(C)(C)OB2O (centres unmarked) [Compound 3, 4-(5-(3,5-Dichloro-4-fluorophenyl)-5-(trifluoromethyl)-4,5-dihydroisoxazol-3-yl)-N-((1-hydroxy-3,3-dimethyl-1,3-dihydrobenzo[c][1,2]oxaborol-5-yl)methyl)-2-methylbenzamide]",mortality at 300 µM,[1],≥ 80%
same,Geometric mean group live parasite counts,[2]; Day 1,0.0
same,% efficacy,[2]; Day 2,(100) %
same,Geometric mean group live parasite counts,[2]; Day 2,0.0
same,Geometric mean group live parasite counts,[2]; Day 7,1.2
same,Geometric mean group live parasite counts,[2]; Day 14,13.3
"Cc1cc(C2=NOC(c3cc(Cl)cc(Cl)c3)(C(F)(F)F)C2)ccc1C(=O)NCc1ccc2c(c1)B(O)OC2(C)C (centres unmarked) [Compound 5, 4-(5-(3,5-Dichlorophenyl)-5-(trifluoromethyl)-4,5-dihydroisoxazol-3-yl)-N-((1-hydroxy-3,3-dimethyl-1,3-dihydrobenzo[c][1,2]oxaborol-6-yl)-methyl)-2-methyl benzamide]",mortality at 300 µM,[1],≥ 80%
same,therapeutic efficacy,[2]; 24 hour post-treatment,100%
same,therapeutic efficacy,[2]; 48 hour post-treatment,100%
same,Residual efficacy,[2]; Day 7,82.6%
same,Residual efficacy,[2]; Day 14,82.7%
same,tolerability,[3],well tolerated
"Cc1cc(C2=NO[C@@](c3cc(Cl)c(F)c(Cl)c3)(C(F)(F)F)C2)ccc1C(=O)NCc1ccc2c(c1)B(O)OC2(C)C [Compound 11, (S)-4-(5-(3,5-Dichloro-4-fluorophenyl)-5-(trifluoromethyl)-4,5-dihydroisoxazol-3-yl)-N-((1-hydroxy-3,3-dimethyl-1,3-dihydrobenzo[c][1,2]oxaborol-6-yl)methyl)-2-methylbenzamide]",Geometric mean group live parasite counts,[4],2.8
same,mortality at 300 µM,[1],≥ 80%
same,efficacy,"[2]; Example 11, oral capsule 25 mg/kg, through Day 21",≥ 99%
same,Geometric mean group live parasite counts,[2]; Day 1,0.0
same,% efficacy,[2]; Day 2,(100) %
same,Geometric mean group live parasite counts,[2]; Day 2,0.0
same,% efficacy,[2]; Day 7,(98.8) %
same,Geometric mean group live parasite counts,[2]; Day 7,0.3
same,% efficacy,[2]; Day 14,(99.1) %
same,Geometric mean group live parasite counts,[2]; Day 14,0.3
same,% efficacy,[2]; Day 21,(99.0) %
same,Geometric mean group live parasite counts,[2]; Day 21,0.2
same,% efficacy,[2]; Day 30,(95.6) %
same,Geometric mean group live parasite counts,[2]; Day 30,1.1
same,Geometric mean group live parasite counts,[5],2.5
"Cc1cc(C2=NOC(c3cc(Cl)c(Cl)c(Cl)c3)(C(F)(F)F)C2)ccc1C(=O)NCc1ccc2c(c1)B(O)OC21CCCC1 (centres unmarked) [Compound 18, N-((1-Hydroxy-1H-spiro[benzo[c][1,2]oxaborole-3,1′-cyclopentan]-6-yl)methyl)-2-methyl-4-(5-(3,4,5-trichlorophenyl)-5-(trifluoromethyl)-4,5-dihydroisoxazol-3-yl)benzamide]",mortality at 300 µM,[1],≥ 80%
"Cc1cc(C2=NOC(c3cc(Cl)c(Cl)c(Cl)c3)(C(F)(F)F)C2)ccc1C(=O)NCCc1ccc2c(c1)B(O)OC2(C)C (centres unmarked) [Compound 19, N-(2-(1-Hydroxy-3,3-dimethyl-1,3-dihydrobenzo[c][1,2]oxaborol-6-yl)ethyl)-2-methyl-4-(5-(3,4,5-trichlorophenyl)-5-(trifluoromethyl)-4,5-dihydroisoxazol-3-yl)benzamide]",mortality at 300 µM,[1],≥ 80%
"Cc1cc(C2=NOC(c3cc(Cl)c(F)c(Cl)c3)(C(F)(F)F)C2)ccc1C(=O)NCCc1ccc2c(c1)B(O)OC2(C)C (centres unmarked) [Compound 20, 4-(5-(3,5-Dichloro-4-fluorophenyl)-5-(trifluoromethyl)-4,5-dihydroisoxazol-3-yl)-N-(2-(1-hydroxy-3,3-dimethyl-1,3-dihydrobenzo[c][1,2]oxaborol-6-yl)ethyl)-2-methylbenzamide]",mortality at 300 µM,[1],≥ 80%
"Cc1cc(C2=NOC(c3cc(Cl)c(Cl)c(Cl)c3)(C(F)(F)F)C2)ccc1C(=O)NC(C)c1ccc2c(c1)B(O)OC2(C)C (centres unmarked) [Compound 22a, N-(1-(1-Hydroxy-3,3-dimethyl-1,3-dihydrobenzo[c][1,2]oxaborol-6-yl)ethyl)-2-methyl-4-(5-(3,4,5-trichlorophenyl)-5-(trifluoromethyl)-4,5-dihydroisoxazol-3-yl)benzamide]",mortality at 300 µM,[1],≥ 80%
"Cc1cc(C2=NOC(c3cc(Cl)c(Cl)c(Cl)c3)(C(F)(F)F)C2)ccc1C(=O)NCc1cc(F)c2c(c1)B(O)OC2(C)C (centres unmarked) [Compound 24, N-((4-fluoro-1-hydroxy-3,3-dimethyl-1,3-dihydrobenzo[c][1,2]oxaborol-6-yl)methyl)-2-methyl-4-(5-(3,4,5-trichlorophenyl)-5-(trifluoromethyl)-4,5-dihydroisoxazol-3-yl)benzamide]",mortality at 300 µM,[1],≥ 80%

# — patent US8546357B2, “Boron-containing small molecules for controlling ectoparasites” (priority 2011, dated 2013)
